# Laboratory results reported in patent US6558900B2, “Regulation of apoptosis and in vitro model for studies thereof” (Emory University, priority 1996, dated 2003).
# Tested on: CPP32
# Assay: Assay for dATP-dependent activation of CPP32 protease (cleavage of in vitro translated 35S-labeled CPP32 in HeLa S-100)
# Format: biochemical, hamster
# Conditions: 1 mM nucleotide, 30° C., 1 hr
# Experimental: The samples were subjected to SDS-PAGE and transferred to a nitrocellulose filter. The filter was exposed to film for 16 hours at room temperature. In FIG. 2B, a 50 μl aliquot of HeLa S-100 (250 μg) was incubated with each aliquot of 6 μl hamster liver nuclei at 37° C. for 2 hr in the presence of 1 mM indicated nucleotide. The DNA was isolated, analyzed by 2% agarose gel electrophoresis and visualized by ethidium bromide staining.
# To test the nucleotide specificity for activation of CPP32 and DNA fragmentation, HeLa cell S-100 was incubated with in vitro translated, ^35S-labeled CPP32 in the presence of 1 mM of various nucleotides (FIG. 2A).
# A PCR fragment encoding amino acids 29-277 of hamster CPP32 [Wang et al. (1996) supra] was cloned into NdeI and BamHI sites of pET 15b vector (Novagen, Madison, Wis.). The resulting fusion protein of six histidines with hamster CPP32 (amino acids 29-277) was translated in a TNT T7 transcription/translation kit (Promega, Madison, Wis.) in the presence of ^35S-methionine according to the manufacturer's instructions. The translated protein was passed through a 1 ml nickel affirmity column (Qiagen, Chatsworth, Calif.) equilibrated with buffer A. After washing the column with 10 ml of buffer A, the translated CPP32 was eluted with buffer A containing 250 mM imidazole. Human SREBP-2 was translated in a TNT SP6 transcription/translation kit as described [Wang et al. (1995) [Hua et al. (1993) Proc. Natl. Acad. Sci. USA 90, 11603-11607]. Full length human PARP cDNA [Chemey et al. (1987) Proc. Natl. Acad. Sci. USA 84, 8370-8374] was cloned into SmaI and EcoRI sites of pBK-CMV vector (Stratagene, La Jolla, Calif.) and translated in a TNT T7 transcription/translation kit [Promega, Madison, Wis.]. The translated SREBP-2 and PARP (200 μl each) were purified by passing each translation mixture through a 10-ml Sephadex G-25 gel-filtration column equilibrated with buffer A. The translated proteins contained within the exclusion volume of the column were collected.
# CPP32 was translated and purified as described above. Aliquot of 3 μl of the in vitro translated CPP32 was incubated with the indicated protein fraction, nucleotides, and 1 mM additional MgCl2 at 30° C. for 1 hour in a final volume of 20 μl of buffer A. At the end of the incubation, 7 μl of 4×SDS sample buffer was added to each reaction. After boiling for 3 min, each sample was subjected to a 15% SDS-polyacrylamide gel electrophoresis (SDS-PAGE). The gel was transferred to a nitrocellulose filter which was subsequently exposed to a Kodak X-OMAT AR X-ray film (Eastman Kodak, Rochester, N.Y.) for 16 hr at room temperature.
structure (smiles),measurement,value
"Nc1ncnc2c1ncn2[C@H]1C[C@H](O)[C@@H](COP(=O)(O)OP(=O)(O)OP(=O)(O)O)O1 [dATP, deoxyadenosine-5-triphosphate]",cleavage of 35S-labeled CPP32 (nucleotide specificity),Cleavage occurred
